In US20080207617A1, “Quinoline Derivatives and Quinazoline Derivatives Inhibiting Autophosphrylation of Flt3 and Medicinal Compositions Containing the Same” (KIRIN BEER KABUSHIKI KAISHA, priority 2002, published 2008):
Counter-ions that a name gives are not always drawn.

Columns and labels:
[1] = tested on: MV4-11; experiment: Cell growth inhibitory test MV4-11 (WST-1); type: cell-based, human; details: Homo sapiens, MV4-11, 72 h, MV4-11 cells, 3 days culture
Procedure: Pharmacological Test Example 2
Cell Growth Inhibitory Test
MV4-11 (ATCC number: CRL-9591) as human leukemia cells was seeded in an amount of 3×10^3 using a DMEM medium containing 10% fetal calf serum (purchased from GIBCO) in a 96-well flat bottom plate.
(§1) A solution of a test compound in dimethyl sulfoxide was added to each well and was cultured in a 5% carbon dioxide incubator for 3 days. Three days after the initiation of the culture, 10 μl of a WST-1 solution in Cell Counting Kit (purchased from Wako Pure Chemical Industries, Ltd.) was added to each well for a color reaction. After proper color development, the absorbance was measured with a microplate reader under conditions of measurement wavelength 450 nm and reference wavelength 650 nm. The growth ratio for each well was determined by presuming the absorbance without the addition of the medicament to be 100% growth ratio and the absorbance of the well without seeding of the cells to be 0% growth ratio. The concentration of the test compound was varied on several levels, the cell growth ratio for each case was determined, and the concentration of the test compound necessary for inhibiting 50% of cell growth ratio (IC50) was calculated.

[2] = tested on: MOLM13; experiment: Cell growth inhibitory activities on cultured human leukemia cells MOLM-13 (WST-1); type: cell-based; details: Homo sapiens, MOLM-13, 72 h, 3 days culture
Procedure: Pharmacological Test Example 4
Cell Growth Inhibitory Activities on Cultured Human Leukemia Cells
as §1, with “Human leukemia cells MOLM13 (subdivided from Hayashibara Biochemical Laboratories, Inc.) were seeded in an amount of 3×10^3 using a DMEM medium containing 10% fetal calf serum (purchased from GIBCO) in a 96-well flat bottom plate. A solution” for “A solution”

SMILES | IC50 [1] [nM] | IC50 [2] [nM]
COc1cc2nccc(Oc3ccc(NC(=O)NCCC(C)(C)C)c(Cl)c3)c2cc1OC [Compound 11, 1-[2-Chloro-4-(6,7-dimethoxy-quinolin-4-yloxy)-phenyl]-3-(3,3-dimethyl-butyl)-urea hydrochloride] | 300 | 416
CCCNC(=O)Nc1ccc(Oc2ccnc3cc(OC)c(OC)cc23)cc1 [Compound 21, 1-[4-(6,7-Dimethoxy-quinolin-4-yloxy)-phenyl]-3-propyl-urea] | 31 | 22
COCCCNC(=O)Nc1ccc(Oc2ccnc3cc(OC)c(OC)cc23)cc1 [Compound 24, 1-[4-(6,7-Dimethoxy-quinolin-4-yloxy)-phenyl]-3-(3-methoxy-propyl)-urea] | 18 | 24
COc1cc2nccc(Oc3ccc(NC(=O)NCCN(C)C)cc3)c2cc1OC [Compound 25, 1-[4-(6,7-Dimethoxy-quinolin-4-yloxy)-phenyl]-3-(2-dimethylamino-ethyl)-urea] | 66 | 258
CNC(=O)Nc1ccc(Oc2ccnc3cc(OC)c(OC)cc23)cc1 [Compound 27, 1-[4-(6,7-Dimethoxy-quinolin-4-yloxy)-phenyl]-3-methyl-urea] | 32 | 45
COc1cc2nccc(Oc3ccc(NC(=O)NCC4CCCCC4)cc3)c2cc1OC [Compound 30, 1-Cyclohexylmethyl-3-[4-(6,7-dimethoxy-quinolin-4-yloxy)-phenyl]-urea] | 4 | 8
COc1cc2nccc(Oc3ccc(NC(=O)NCC(C)(C)C)cc3)c2cc1OC [Compound 32, 1-[4-(6,7-Dimethoxy-quinolin-4-yloxy)-phenyl]-3-(2,2-dimethyl-propyl)-urea] | 201 | 314
COc1cc2nccc(Oc3ccc(NC(=O)NCCCC4CCCCC4)cc3)c2cc1OC [Compound 33, 1-(3-Cyclohexyl-propyl)-3-[4-(6,7-dimethoxy-quinolin-4-yloxy)-phenyl]-urea] | 8 | 4
COc1cc2nccc(Oc3ccc(NC(=O)NCCCC(C)C)cc3)c2cc1OC [Compound 34, 1-[4-(6,7-Dimethoxy-quinolin-4-yloxy)-phenyl]-3-(4-methyl-pentyl)-urea] | < 1 | 2
COc1cc2nccc(Oc3ccc(NC(=O)NCCCC(C)(C)C)cc3)c2cc1OC [Compound 35, 1-[4-(6,7-Dimethoxy-quinolin-4-yloxy)-phenyl]-3-(4,4-dimethyl-pentyl)-urea] | < 1 | 3
COc1cc2ncnc(Oc3ccc(NC(=O)NCCC(C)(C)C)cc3)c2cc1OC [Compound 36, 1-[4-(6,7-Dimethoxy-quinazolin-4-yloxy)-phenyl]-3-(3,3-dimethyl-butyl)-urea] | < 1 | 2
COc1cc2nccc(Oc3ccc(NC(=O)NCCC(C)(C)C)c([N+](=O)[O-])c3)c2cc1OC [Compound 37, 1-[2-Nitro-4-(6,7-dimethoxy-quinolin-4-yloxy)-phenyl]-3-(3,3-dimethyl-butyl)-urea] | 47 | 38
COc1cc2c(Oc3ccc(NC(=O)NCCC(C)(C)C)c(Cl)c3)ccnc2cc1OCCN1CCC(C)CC1 [Compound 51, 1-(2-Chloro-4-{6-methoxy-7-[2-(4-methyl-piperidin-1-yl)-ethoxy]-quinolin-4-yloxy}-phenyl)-3-(3,3-dimethyl-butyl)-urea] | 211 | 216
COc1cc2c(Oc3ccc(NC(=O)NCCC(C)(C)C)c(Cl)c3)ccnc2cc1OCCCN1CCC(C)CC1 [Compound 52, 1-(2-Chloro-4-{6-methoxy-7-[3-(4-methyl-piperidin-1-yl)-propoxy]-quinolin-4-yloxy}-phenyl)-3-(3,3-dimethyl-butyl)-urea] | 184 | 188

Second part, the compound after the results:

IC50 [1] [nM] | IC50 [2] [nM] | SMILES
395 | 770 | COc1cc2nccc(Oc3ccc(NC(=O)NCCC(C)(C)C)c(C)c3)c2cc1OC [Compound 2, 1-[4-(6,7-Dimethoxy-quinolin-4-yloxy)-2-methyl-phenyl]-3-(3,3-dimethyl-butyl)-urea]
889 | 653 | COc1cc(Oc2ccnc3cc(OC)c(OC)cc23)ccc1NC(=O)NCCC(C)(C)C [Compound 4, 1-[4-(6,7-Dimethoxy-quinolin-4-yloxy)-2-methoxy-phenyl]-3-(3,3-dimethyl-butyl)-urea]
558 | 593 | COc1cc2nccc(Oc3ccc(NC(=O)NCCC(C)(C)C)c(C)c3C)c2cc1OC [Compound 7, 1-[4-(6,7-Dimethoxy-quinolin-4-yloxy)-2,3-dimethyl-phenyl]-3-(3,3-dimethyl-butyl)-urea]
8 | 24 | COc1cc2nccc(Oc3ccc(NC(=O)NCCC(C)(C)C)c(F)c3)c2cc1OC [Compound 9, 1-[4-(6,7-Dimethoxy-quinolin-4-yloxy)-2-fluoro-phenyl]-3-(3,3-dimethyl-butyl)-urea hydrochloride]
6 | 10 | CCCCNC(=O)Nc1ccc(Oc2ccnc3cc(OC)c(OC)cc23)cc1 [Compound 19, 1-Butyl 3-[4-(6,7-dimethoxy-quinolin-4-yloxy)-phenyl]-urea]
31 | 39 | COc1cc2nccc(Oc3ccc(NC(=O)NC(C)C)cc3)c2cc1OC [Compound 20, 1-[4-(6,7-Dimethoxy-quinolin-4-yloxy)-phenyl]-3-isopropyl-urea]
4 | 7 | CCCCCCNC(=O)Nc1ccc(Oc2ccnc3cc(OC)c(OC)cc23)cc1 [Compound 22, 1-[4-(6,7-Dimethoxy-quinolin-4-yloxy)-phenyl]-3-hexyl-urea]
2 | 4 | CCCCCNC(=O)Nc1ccc(Oc2ccnc3cc(OC)c(OC)cc23)cc1 [Compound 23, 1-[4-(6,7-Dimethoxy-quinolin-4-yloxy)-phenyl]-3-pentyl-urea]
19 | 26 | CCNC(=O)Nc1ccc(Oc2ccnc3cc(OC)c(OC)cc23)cc1 [Compound 28, 1-[4-(6,7-Dimethoxy-quinolin-4-yloxy)-phenyl]-3-ethyl-urea]
1 | 3 | COc1cc2nccc(Oc3ccc(NC(=O)NCCC(C)C)cc3)c2cc1OC [Compound 29, 1-[4-(6,7-Dimethoxy-quinolin-4-yloxy)-phenyl]-3-(3-methyl-butyl)-urea]
2 | 2 | COc1cc2nccc(Oc3ccc(NC(=O)NCCC4CCCCC4)cc3)c2cc1OC [Compound 31, 1-(2-Cyclohexyl-ethyl)-3-[4-(6,7-dimethoxy-quinolin-4-yloxy)-phenyl]-urea]
< 1 | 3 | COc1cc2nccc(Oc3ccc(NC(=O)NCCC(C)(C)CO)cc3)c2cc1OC [Compound 39, 1-[4-(6,7-Dimethoxy-quinolin-4-yloxy)-phenyl]-3-(4-hydroxy-3,3-dimethyl-butyl)-urea]
235 | 273 | COc1cc2c(Oc3ccc(NC(=O)NCCC(C)(C)C)c(Cl)c3)ccnc2cc1OCCN1CCCCC1 [Compound 42, 1-{2-Chloro-4-[6-methoxy-7-(2-piperidin-1-yl-ethoxy)-quinolin-4-yloxy]-phenyl}-3-(3,3-dimethyl-butyl)-urea]
217 | – | COc1cc2c(Oc3ccc(NC(=O)NCCC(C)(C)C)c(Cl)c3)ccnc2cc1OCCN1CCCC1 [Compound 48, 1-{2-Chloro-4-[6-methoxy-7-(2-pyrrolidin-1-yl-ethoxy)-quinolin-4-yloxy]-phenyl}-3-(3,3-dimethyl-butyl)-urea]
207 | 224 | COc1cc2c(Oc3ccc(NC(=O)NCCC(C)(C)C)c(Cl)c3)ccnc2cc1OCCC1CCNCC1 [Compound 49, 1-{2-Chloro-4-[6-methoxy-7-(2-piperidin-4-yl-ethoxy)-quinolin-4-yloxy]-phenyl}-3-(3,3-dimethyl-butyl)-urea]
224 | 243 | COc1cc2c(Oc3ccc(NC(=O)NCCC(C)(C)C)c(Cl)c3)ccnc2cc1OCCC1CCCCN1 (stereo not shown) [Compound 50, 1-{2-Chloro-4-[6-methoxy-7-(2-piperidin-2-yl-ethoxy)-quinolin-4-yloxy]-phenyl}-3-(3,3-dimethyl-butyl)-urea]
2 | 4 | COc1cc2c(Oc3ccc(NC(=O)NCCC4CCCC4)cc3F)ccnc2cc1OCCN1CCCCC1 [Compound 59, 1-(2-Cyclopentyl-ethyl)-3-{3-fluoro-4-[6-methoxy-7-(2-piperidin-1-yl-ethoxy)-quinolin-4-yloxy]-phenyl}-urea]
